Measured values from patent publication US20030129189A1, “Tumor necrosis factor-gamma” (priority 1994, published 2003).

Legend:
[1] = test system: WEHI 164; assay: TNF-gamma activity on WEHI 164 cells (MTS cytotoxicity/proliferation, morphology); assay type: cell-based, mouse; design: key to Proliferation / Differentiation / Adhesion: The numbers of “+” indicate the relative level of activities.; ++: The numbers of “+” indicate the relative level of activities.; +++: The numbers of “+” indicate the relative level of activities.; “−” indicates no detected activity at the concentration range tested
Protocol: (§1) The adherent target cells were prepared from confluent cultures by trypsinization in PBS, and non-adherent target cells were harvested from stationary cultures and washed once with medium. Target cells were suspended at 3×10^5 cells/ml in medium containing 10% FCS. 0.1 ml aliquots were dispensed into 96-well flat-bottomed microtiter plates containing 0.1 ml serially diluted test samples of cells (WEHI 164 and L929). Incubation was continued for 70 hours. TNF-alpha, TNF-beta and bacterially-produced TNF-gamma were added at a 0.5 μg/ml concentration. The cytotoxicity and proliferation activity was quantified using an MTS assay performed by the addition of 20 μl of MTS and phenazine methosulfate (PMS) solution to each well. After a three hour incubation, the OD at 492 nm was measured by an ELISA plate reader. The OD492 is proportional to the number of viable cells in the wells. The percent of cytotoxicity was calculated as follows: […]. The photographs were taken after 72 hours.
In the graph of FIG. 7B, the assay was performed as described above, however, increasing amounts of TNF-alpha, TNF-beta and TNF-gamma were added to the cultures.

[2] = test system: Jurkat; assay: TNF-gamma activity on Jurkat cells; assay type: cell-based; design: key: The numbers of “+” indicate the relative level of activities.; ++: The numbers of “+” indicate the relative level of activities.; +++: The numbers of “+” indicate the relative level of activities.; “−” indicates no detected activity at the concentration range tested; settings: human T-cell lymphoma
Protocol: as §1

[3] = test system: 293; assay: TNF-gamma activity on 293 cells; assay type: cell-based; design: key: The numbers of “+” indicate the relative level of activities.; ++: The numbers of “+” indicate the relative level of activities.; +++: The numbers of “+” indicate the relative level of activities.; “−” indicates no detected activity at the concentration range tested; settings: 293, human embryonal kidney
[4] = test system: bovine pulmonary artery endothelial cells (BPAEC); assay: Endothelial cell apoptosis (morphology, Hoechst staining, DNA fragmentation); assay type: cell-based; settings: BPAEC, 48 hours, Hoechst 33342
Protocol: [Bovine pulmonary artery endothelial cells were incubated with various concentrations of TNF-gamma for 48 hours. The apoptosis was assessed by nuclear staining with Hoechst 33342 fluorescence dye (10 mg/ml).] […] [U937 cells were transfected using lipofectamine (following manufacturer's instruction) with 0.2 mg of reporter plasmid (NF-kappaB-SEAP). The transfected U937 cells were collected and added to the 96-well plate ([…]/well) with various concentrated of TNF-gamma. After Incubation at 37° C. for 72 hr, the NF-kappaB activity was measured with luminometer at absorbance of 450 nm.]
Bovine pulmonary artery endothelia cells (BPAEC) were incubated with various concentrations of TNF-gamma for 48 hours. Apoptosis was assessed morphologically and by nuclear staining with Hoechst 33342 fluorescence dye (10 mg/ml) in triplicate. Live and apoptotic cells were scored in four random fields, about 1,000 cells were counted. The DNA fragmentation was analyzed as described previously.
BPAEC were obtained from the American Type Culture Collection (Rockville, Md., USA). The cells were grown in DMEM supplemented with 10% heat-inactivated FCS in a humidified environment of 5% CO2/[…] at 37° C. as previously described (Yue, T. L., et al., Mol. Pharmacol. 51:951-962 (1997)). Cells at a subconfluent density were used. Before experiments, the medium was changed to DMEM contained 2% FCS. BPAEC from passages 17-20 were used in all studies.
To quantify cells undergoing apoptosis, cell monolayers were fixed and stained with Hoechst […] (Molecular probe, Eugene, Oreg., USA) as described previously (Yue, T. L., et al., Mol. Pharmacol. 51:951-962 (1997)). The morphological features of apoptosis (cell shrinkage, chromatin condensation, blebbing, and fragmentation) were monitored by fluorescence microscopy. Transmission electron microscopy study was done as reported previously (Yue, T. L., et al., Mol. Pharmacol. 51:951-962 (1997)).
DNA ladder: Cells treated with vehicle or TNF-gamma-alpha were lysed in lysis buffer containing 100 mM NaCl, 10 mM Tris-HCl, pH 8.0, 2.5 mM EEDTA, 0.5% SDS, and 100 micrograms/ml […]. The lysates were incubated at 55° C. for 16 h. After incubation, the lysates were gently extracted three times with pheno/chloroform/isoamyl alcohol, precipitated in ethanol, treated with DNAse-free RNAse, re-extracted, and precipitated again as described previously. DNA electrophoresis was carried out in 1.8% agarose gels containing ethidium bromide, and DNA fragmentations were visualized under ultraviolet light.
In situ end-labeling (TUNEL): BPAEC were cultured in two-chamber slides (Nunc) and treated with TNF-gamma-alpha for 8 to 24 h. In situ detection of apoptotic cells was performed by using terminal deoxyribonucleotide transferase-mediated dUTP nick end labeling with an ApopTag in situ apoptosis detection kit (Oncor) following the manufacturer's recommendation.
The cells were plated in two-chamber slides. The cells were cotransfected with 0.5 μg/ml of Pegfp-c-1 (Clontech; Li, Y. and Horwitz, M. S. Biotechnology 23:1026-1028) as a fluorescent marker of transfected cells together with 1 μg/ml of either the empty cloning vector pcDNA1 (control) or the dominant-interfering c-Jun mutant pcDNA1-FlagΔ169 (Xia, Z., et al., Science 270:1326-1331 (1995)) using Calphos Maximizer Transfection Kit (Clontech) according to the manufacturer's recommendation. Following transfection, the cells were allowed to recover in complete medium for 24 h. The cells were treated with TNF-gamma-alpha and the number of apoptotic cells was assessed by nuclear staining after fixation as described in Methods.

TNF-gamma: new member of the tumor necrosis factor family; the term refers to TNF-gamma-alpha and/or TNF-gamma-beta
inhibition of WEHI 164 cell growth ([1]; MTS assay, increasing amounts added (FIG. 7B)): dose-dependent inhibitor of the growth
morphology change (killed cells) ([1]; WEHI 164, 0.5 μg/ml, photographs after 72 hours (FIG. 7A)): induced a morphology change which appeared as dark round cells (indicating killed cells)
Adhesion ([1]; WEHI 164, mouse fibrosarcoma): −−
Differentiation ([1]; WEHI 164, mouse fibrosarcoma): −−
Proliferation ([1]; WEHI 164, mouse fibrosarcoma): −
Adhesion [2]: −−
Differentiation [2]: −−
Proliferation [2]: −
Adhesion [3]: −−
Differentiation [3]: −−
Proliferation [3]: ++
apoptosis [4]: induces apoptosis
